From ChEMBL document CHEMBL1201862, “PubChem BioAssay data set” (2004)
Calls of active or inactive are those of the source.

Columns and labels:
[1] = inhibitors of intracellular T. cruzi replication, confirmation, NIH3T3 host cells, beta-gal luminescence (AID 2044); format: functional, cell-based;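 note: intracellular parasites grown in NIH/3T3 mouse fibroblasts as host cells; luminescent beta-galactosidase reporter signal from transgenic T. cruzi replicating inside host cells; inhibitors lower the luminescence signal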
[2] = cytotoxicity toward NIH3T3 fibroblasts, dose response, counter-screen, cell-based, ATP luminescence, mouse fibroblasts (AID 2010); format: functional;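 note: cells exposed to compound for about 90 hours before reading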
[3] = target: T1, Neuropeptide Y receptor type 1 (Homo sapiens, UniProt P25929); format: functional;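 note: HEK293 cells with a CNG channel challenged with NPY then isoproterenol; potency as antagonist that reverses NPY suppression of cAMP signal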
T1 sequence (P25929 whole entry): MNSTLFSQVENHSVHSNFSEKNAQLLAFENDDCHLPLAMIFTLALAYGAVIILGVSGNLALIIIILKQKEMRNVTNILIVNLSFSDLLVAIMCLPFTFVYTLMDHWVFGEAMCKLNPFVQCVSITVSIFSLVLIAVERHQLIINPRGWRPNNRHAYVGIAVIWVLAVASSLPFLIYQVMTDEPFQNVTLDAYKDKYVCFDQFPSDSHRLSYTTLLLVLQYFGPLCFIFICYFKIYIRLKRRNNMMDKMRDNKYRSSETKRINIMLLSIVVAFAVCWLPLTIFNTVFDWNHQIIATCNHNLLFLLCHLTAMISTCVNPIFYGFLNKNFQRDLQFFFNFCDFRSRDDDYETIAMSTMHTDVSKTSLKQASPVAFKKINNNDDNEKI

[4] = target: T2, Neuropeptide Y receptor type 2 (Homo sapiens, UniProt P49146); format: functional, cell-based;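 note: HEK293 cells expressing the receptor and a CNG channel; stimulus was NPY near EC95 followed by isoproterenol to raise cAMP; antagonist potency measured as restoring cAMP signal that NPY suppresses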
T2 sequence (P49146 whole entry): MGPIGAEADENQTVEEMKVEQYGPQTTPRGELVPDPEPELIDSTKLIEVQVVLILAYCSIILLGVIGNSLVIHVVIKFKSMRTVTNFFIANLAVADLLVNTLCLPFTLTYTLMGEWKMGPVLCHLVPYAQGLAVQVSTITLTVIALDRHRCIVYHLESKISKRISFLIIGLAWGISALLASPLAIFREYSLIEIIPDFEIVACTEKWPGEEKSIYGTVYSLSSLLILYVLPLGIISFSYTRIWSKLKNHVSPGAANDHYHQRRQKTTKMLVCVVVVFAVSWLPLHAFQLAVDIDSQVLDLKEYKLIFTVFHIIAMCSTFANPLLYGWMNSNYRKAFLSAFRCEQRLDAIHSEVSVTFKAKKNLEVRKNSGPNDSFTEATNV

[5] = Luminescence Cell-Based Dose Confirmation HTS to Identify Inhibitors of Platelet Dense Granule Release. [Related pubchem assays: 1663 (Primary HTS), 1678 (Summary of Project)]; format: functional
[6] = LGR2 antagonists, dose response, cell-based, HEK293, CRE-luciferase reporter, cherry pick, set 2 (AID 743343); format: functional;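 note: transfected cells were stimulated with diluted bursicon conditioned medium after compound addition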
[7] = target: Luciferin 4-monooxygenase (Photinus pyralis, UniProt P08659); experiment: firefly luciferase enzyme inhibitors, dose response, biochemical, luminescence (AID 1891)
[8] = Luminescence-based counterscreen assay for KLF5 inhibitors: dose response cell-based high throughput screening assay to identify cytotoxic compounds using the IEC-6 intestinal epithelial cell line. [Related pubchem assays: 1700 (Primary screen.), 1834 (Confirmation screen.), 1858 (Summary AID.), 1905 (Counterscreen.)]; format: functional
[9] = Luminescence Cell-Based Dose Response HTS to Identify Inhibitors of 5'UTR Stem-Loop Driven Prion Protein mRNA Translation in H4 Neuroglioblastoma Cells. [Related pubchem assays: 1827 (Project Summary), 1813 (Primary HTS)]; format: functional
[10] = HEK293 cell cytotoxicity, dose response, cytotoxicity control, plate reader, cherry-picked samples (AID 743446); format: functional, cell-based
[11] = inhibitors of firefly luciferase expression or activity, dose response, H4 neuroglioma cells, luminescence (AID 1990); format: functional, cell-based
[12] = MC4R antagonists, dose response, counter-screen for LGR2 antagonist project, cell-based, plate reader, cherry pick (AID 743444); format: functional;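 note: transfected HEK 293 cells stimulated with alpha-MSH peptide; potency of inhibitors of the alpha-MSH evoked signal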
[13] = target: Peroxisome proliferator-activated receptor gamma/Nuclear receptor coactivator 3 (Homo sapiens, UniProt P37231); format: functional;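 note: agonist potency for raising coactivator recruitment to the receptor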
Chain of Peroxisome proliferator-activated receptor gamma/Nuclear receptor coactivator 3 (P37231 whole entry): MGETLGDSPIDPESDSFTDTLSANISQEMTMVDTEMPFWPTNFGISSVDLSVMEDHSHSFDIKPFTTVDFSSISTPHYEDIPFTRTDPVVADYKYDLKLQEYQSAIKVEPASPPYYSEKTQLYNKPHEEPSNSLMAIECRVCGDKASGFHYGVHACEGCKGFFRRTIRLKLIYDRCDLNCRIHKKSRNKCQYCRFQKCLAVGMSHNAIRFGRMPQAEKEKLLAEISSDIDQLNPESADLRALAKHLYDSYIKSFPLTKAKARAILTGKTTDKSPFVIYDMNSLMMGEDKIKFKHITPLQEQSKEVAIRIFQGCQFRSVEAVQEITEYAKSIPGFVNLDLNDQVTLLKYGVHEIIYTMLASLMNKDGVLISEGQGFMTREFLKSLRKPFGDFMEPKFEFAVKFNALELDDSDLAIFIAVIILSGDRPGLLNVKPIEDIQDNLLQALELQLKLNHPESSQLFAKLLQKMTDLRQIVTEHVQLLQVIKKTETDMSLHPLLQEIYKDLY
Chain of Peroxisome proliferator-activated receptor gamma/Nuclear receptor coactivator 3 (Q9Y6Q9 whole entry, further chain): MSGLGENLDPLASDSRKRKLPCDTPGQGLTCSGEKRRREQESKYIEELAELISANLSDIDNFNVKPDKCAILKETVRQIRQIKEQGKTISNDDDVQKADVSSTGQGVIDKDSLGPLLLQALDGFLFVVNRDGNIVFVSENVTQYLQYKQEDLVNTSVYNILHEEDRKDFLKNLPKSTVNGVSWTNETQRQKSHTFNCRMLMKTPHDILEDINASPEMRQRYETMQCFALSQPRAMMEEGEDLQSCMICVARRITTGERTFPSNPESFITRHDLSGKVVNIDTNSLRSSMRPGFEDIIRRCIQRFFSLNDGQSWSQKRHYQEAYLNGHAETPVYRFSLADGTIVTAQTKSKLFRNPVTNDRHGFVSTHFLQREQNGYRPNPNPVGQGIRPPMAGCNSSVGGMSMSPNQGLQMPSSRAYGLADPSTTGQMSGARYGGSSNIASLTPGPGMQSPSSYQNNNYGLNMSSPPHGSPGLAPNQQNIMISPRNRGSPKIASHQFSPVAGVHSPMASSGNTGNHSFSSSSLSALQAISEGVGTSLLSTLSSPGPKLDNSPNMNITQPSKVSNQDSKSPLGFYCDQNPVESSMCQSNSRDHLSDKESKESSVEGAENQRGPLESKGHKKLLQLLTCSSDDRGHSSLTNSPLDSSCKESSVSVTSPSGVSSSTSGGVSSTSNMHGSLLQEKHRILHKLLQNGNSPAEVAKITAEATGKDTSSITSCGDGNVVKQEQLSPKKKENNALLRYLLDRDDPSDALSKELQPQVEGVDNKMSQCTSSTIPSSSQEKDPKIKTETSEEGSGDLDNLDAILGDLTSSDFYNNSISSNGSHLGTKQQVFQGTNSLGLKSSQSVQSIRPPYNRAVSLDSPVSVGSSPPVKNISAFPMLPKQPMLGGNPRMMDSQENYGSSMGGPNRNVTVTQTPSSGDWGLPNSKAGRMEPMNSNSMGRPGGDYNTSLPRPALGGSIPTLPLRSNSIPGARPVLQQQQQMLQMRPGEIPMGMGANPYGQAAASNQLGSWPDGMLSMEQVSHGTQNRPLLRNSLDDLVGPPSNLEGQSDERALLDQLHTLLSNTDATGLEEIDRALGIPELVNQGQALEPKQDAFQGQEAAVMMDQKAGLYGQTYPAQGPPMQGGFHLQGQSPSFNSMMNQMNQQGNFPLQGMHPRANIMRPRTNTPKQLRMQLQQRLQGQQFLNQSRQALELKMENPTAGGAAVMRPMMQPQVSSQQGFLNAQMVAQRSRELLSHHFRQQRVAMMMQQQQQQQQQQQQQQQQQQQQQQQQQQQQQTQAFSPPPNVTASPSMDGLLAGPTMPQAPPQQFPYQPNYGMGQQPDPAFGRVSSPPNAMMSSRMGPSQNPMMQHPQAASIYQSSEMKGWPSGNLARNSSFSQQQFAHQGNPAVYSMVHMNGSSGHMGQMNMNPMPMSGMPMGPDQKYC

Cytochrome P450 2C19 [14] = target: T3, Cytochrome P450 2C19 (Homo sapiens, UniProt P33261); experiment: Cytochrome panel assay with activity outcomes. Panel member name: p450-cyp2c19 Compounds with AC50 equal or less than 10 uM are considered active; format: functional; conditions: read-out: AC50
T3 sequence (P33261 whole entry): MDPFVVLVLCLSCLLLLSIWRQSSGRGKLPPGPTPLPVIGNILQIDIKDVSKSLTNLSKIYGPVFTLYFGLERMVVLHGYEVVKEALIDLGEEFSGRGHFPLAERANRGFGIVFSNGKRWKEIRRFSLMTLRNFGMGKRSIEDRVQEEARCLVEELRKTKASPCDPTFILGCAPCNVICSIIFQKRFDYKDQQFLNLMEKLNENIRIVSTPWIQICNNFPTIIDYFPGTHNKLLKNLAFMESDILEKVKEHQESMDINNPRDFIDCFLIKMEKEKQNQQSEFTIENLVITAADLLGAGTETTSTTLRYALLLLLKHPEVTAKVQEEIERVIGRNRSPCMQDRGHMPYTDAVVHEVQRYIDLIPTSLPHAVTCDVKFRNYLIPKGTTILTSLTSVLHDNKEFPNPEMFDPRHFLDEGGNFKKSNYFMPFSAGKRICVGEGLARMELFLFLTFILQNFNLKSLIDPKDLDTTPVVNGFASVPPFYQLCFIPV

Cytochrome P450 3A4 [15] = target: T4, Cytochrome P450 3A4 (Homo sapiens, UniProt P08684);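 note: CYP3A4 tested as one member of a cytochrome P450 panel screen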
T4 sequence (P08684 whole entry): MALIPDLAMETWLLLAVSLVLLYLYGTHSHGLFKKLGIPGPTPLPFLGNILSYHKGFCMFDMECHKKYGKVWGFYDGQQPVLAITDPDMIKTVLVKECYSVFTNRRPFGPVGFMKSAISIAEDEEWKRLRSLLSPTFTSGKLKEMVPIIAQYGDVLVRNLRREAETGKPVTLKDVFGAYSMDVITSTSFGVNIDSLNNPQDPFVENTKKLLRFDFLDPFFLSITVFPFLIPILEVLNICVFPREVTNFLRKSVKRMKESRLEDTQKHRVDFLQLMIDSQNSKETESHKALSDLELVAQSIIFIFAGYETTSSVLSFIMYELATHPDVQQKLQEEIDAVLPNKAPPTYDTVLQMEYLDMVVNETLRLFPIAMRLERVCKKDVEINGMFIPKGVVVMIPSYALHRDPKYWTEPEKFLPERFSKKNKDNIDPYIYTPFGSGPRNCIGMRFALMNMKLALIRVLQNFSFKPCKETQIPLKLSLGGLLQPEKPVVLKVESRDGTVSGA

Cytochrome P450 2C9 = Cytochrome P450 2C9 (Homo sapiens, UniProt P11712)
[16] = target: Peroxisome proliferator-activated receptor gamma/Nuclear receptor coactivator 2 (Homo sapiens, UniProt P37231); format: functional;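 note: agonist potency for raising coactivator recruitment to the receptor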
Chain of Peroxisome proliferator-activated receptor gamma/Nuclear receptor coactivator 2 (P37231 whole entry): as the sequence (P37231 whole entry) above
Chain of Peroxisome proliferator-activated receptor gamma/Nuclear receptor coactivator 2 (Q15596 whole entry, further chain): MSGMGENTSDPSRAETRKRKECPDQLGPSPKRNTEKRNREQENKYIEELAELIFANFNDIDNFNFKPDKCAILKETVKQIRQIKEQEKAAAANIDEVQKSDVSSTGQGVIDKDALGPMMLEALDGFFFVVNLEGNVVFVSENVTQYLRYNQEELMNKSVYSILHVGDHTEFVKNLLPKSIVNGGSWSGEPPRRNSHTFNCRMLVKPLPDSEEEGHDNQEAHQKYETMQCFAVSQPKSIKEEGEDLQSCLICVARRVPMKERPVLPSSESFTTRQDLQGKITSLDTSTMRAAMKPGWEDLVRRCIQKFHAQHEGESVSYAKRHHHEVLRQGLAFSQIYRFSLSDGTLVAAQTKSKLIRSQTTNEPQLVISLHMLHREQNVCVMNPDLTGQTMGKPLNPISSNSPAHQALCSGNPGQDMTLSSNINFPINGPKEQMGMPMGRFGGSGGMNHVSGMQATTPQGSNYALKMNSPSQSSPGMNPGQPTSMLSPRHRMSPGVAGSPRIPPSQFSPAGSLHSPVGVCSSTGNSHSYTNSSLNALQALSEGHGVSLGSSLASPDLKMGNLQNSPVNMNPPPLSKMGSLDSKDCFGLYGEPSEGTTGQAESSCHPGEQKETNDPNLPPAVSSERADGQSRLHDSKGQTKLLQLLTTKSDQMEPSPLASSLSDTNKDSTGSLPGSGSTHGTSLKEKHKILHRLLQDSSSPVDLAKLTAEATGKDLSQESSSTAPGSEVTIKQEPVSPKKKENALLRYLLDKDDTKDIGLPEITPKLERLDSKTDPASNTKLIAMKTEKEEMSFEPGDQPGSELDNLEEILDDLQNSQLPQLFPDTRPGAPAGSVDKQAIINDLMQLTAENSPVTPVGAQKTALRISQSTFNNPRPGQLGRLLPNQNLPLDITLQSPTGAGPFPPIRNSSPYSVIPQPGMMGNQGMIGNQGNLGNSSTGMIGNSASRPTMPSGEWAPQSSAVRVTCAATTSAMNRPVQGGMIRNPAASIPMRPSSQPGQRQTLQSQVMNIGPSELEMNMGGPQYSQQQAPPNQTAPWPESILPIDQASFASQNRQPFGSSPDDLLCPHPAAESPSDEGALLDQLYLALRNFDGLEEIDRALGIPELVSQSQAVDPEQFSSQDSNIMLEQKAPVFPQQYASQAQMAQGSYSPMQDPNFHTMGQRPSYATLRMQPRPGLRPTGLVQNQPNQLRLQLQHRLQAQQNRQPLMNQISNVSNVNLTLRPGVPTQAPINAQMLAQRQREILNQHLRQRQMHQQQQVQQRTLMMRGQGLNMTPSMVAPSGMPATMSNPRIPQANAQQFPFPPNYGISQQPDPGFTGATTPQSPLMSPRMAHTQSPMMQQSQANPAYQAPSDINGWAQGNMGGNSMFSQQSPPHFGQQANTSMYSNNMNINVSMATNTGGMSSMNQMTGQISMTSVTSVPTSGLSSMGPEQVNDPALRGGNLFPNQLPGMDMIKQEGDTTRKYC

[17] = target: Peroxisome proliferator-activated receptor gamma/Nuclear receptor coactivator 1 (Homo sapiens, UniProt P37231); format: functional;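 note: agonist potency as compounds enhance coactivator SRC-1 recruitment to PPARgamma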
[18] = target: T5, Mannose-6-phosphate isomerase (Homo sapiens, UniProt P34949); experiment: human PMI inhibitors, high substrate, primary screen, biochemical, fluorescence intensity, high mannose 6-phosphate (AID 1220)
T5 sequence (P34949 whole entry): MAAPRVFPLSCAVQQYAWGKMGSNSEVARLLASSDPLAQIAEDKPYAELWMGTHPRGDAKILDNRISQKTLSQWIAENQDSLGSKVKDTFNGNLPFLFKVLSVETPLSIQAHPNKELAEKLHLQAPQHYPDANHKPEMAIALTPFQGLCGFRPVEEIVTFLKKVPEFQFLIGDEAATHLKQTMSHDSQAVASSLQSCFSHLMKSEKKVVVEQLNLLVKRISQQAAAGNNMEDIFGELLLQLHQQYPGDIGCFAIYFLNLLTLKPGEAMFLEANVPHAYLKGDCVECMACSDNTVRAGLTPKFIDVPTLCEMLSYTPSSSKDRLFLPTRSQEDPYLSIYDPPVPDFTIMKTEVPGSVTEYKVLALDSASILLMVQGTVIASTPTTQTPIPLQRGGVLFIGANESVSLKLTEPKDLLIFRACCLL

[19] = target: T5, Mannose-6-phosphate isomerase; experiment: inhibitors of human PMI, primary screen, biochemical, fluorescence intensity, coupled assay (AID 1209)
Cytochrome P450 3A4 [20] = target: T4, Cytochrome P450 3A4; remark: listed apart in the source
Cytochrome P450 2C19 [21] = target: T3, Cytochrome P450 2C19; experiment: qHTS Assay for Inhibitors and Substrates of Cytochrome P450 2C19. [Related pubchem assays: 410 ]; format: ADME; conditions: read-out: Potency
BJ [22] = experiment: cytotoxicity toward BJ-TERT fibroblasts, dose response, cell-based, RAS-independent, luminescence (AID 1933); format: functional; conditions: Homo sapiens
[23] = cytotoxicity toward DRD oncogenic fibroblasts, dose response, cell-based, non-viral oncogenic, luminescence (AID 1934); format: functional; conditions: Homo sapiens
BJ [24] = experiment: cells; format: functional, cell-based; conditions: Homo sapiens
BJ [25] = experiment: cytotoxicity toward BJ-TERT-LT-ST fibroblasts, dose response, cell-based, RAS-independent, luminescence (AID 1935); format: functional; conditions: Homo sapiens;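 note: BJ fibroblasts immortalized with TERT plus LT and ST oncogenes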
[26] = target: T6, Histone-lysine N-methyltransferase NSD2 (Homo sapiens, UniProt O96028); format: biochemical
T6 sequence (O96028 whole entry): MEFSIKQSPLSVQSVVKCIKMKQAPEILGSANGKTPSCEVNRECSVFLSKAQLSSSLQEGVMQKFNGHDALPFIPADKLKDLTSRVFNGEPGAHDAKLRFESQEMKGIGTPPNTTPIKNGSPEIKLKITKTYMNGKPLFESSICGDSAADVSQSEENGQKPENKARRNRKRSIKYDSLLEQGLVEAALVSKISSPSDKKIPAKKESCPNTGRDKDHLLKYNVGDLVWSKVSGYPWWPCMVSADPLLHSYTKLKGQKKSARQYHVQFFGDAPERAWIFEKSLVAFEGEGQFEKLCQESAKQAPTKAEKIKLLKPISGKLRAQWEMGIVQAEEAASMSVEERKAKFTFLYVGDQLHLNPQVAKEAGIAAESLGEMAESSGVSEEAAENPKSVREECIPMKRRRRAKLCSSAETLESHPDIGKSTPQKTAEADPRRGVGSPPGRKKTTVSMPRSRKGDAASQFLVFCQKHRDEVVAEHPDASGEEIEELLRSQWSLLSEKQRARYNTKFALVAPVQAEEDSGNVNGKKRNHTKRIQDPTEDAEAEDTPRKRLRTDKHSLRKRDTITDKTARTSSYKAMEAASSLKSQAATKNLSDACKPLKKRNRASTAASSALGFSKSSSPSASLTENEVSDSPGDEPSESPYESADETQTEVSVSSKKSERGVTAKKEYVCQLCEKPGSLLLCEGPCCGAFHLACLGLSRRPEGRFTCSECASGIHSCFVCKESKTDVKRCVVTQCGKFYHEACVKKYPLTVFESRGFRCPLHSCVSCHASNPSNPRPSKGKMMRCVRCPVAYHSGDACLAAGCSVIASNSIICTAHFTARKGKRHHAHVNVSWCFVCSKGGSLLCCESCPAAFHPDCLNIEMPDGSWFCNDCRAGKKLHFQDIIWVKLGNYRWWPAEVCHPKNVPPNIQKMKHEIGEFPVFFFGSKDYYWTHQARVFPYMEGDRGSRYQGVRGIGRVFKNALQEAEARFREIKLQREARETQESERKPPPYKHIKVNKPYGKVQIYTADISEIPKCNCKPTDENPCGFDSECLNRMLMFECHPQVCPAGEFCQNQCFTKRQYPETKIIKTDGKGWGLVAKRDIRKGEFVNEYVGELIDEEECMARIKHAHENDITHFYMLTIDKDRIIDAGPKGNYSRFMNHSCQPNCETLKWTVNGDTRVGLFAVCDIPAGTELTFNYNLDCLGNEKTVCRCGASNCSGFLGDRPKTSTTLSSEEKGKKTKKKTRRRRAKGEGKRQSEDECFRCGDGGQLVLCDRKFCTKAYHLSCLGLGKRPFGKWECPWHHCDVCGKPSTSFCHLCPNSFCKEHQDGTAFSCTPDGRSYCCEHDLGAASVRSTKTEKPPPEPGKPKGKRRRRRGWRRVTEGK

[27] = P. falciparum Dd2 growth inhibitors, dose response, SYBR Green, cherry-picked samples (AID 1159567); format: functional, cell-based
[28] = HepG2 cell cytotoxicity, dose response, cytotoxicity control, cherry-picked samples (AID 1159577); format: functional, cell-based

O=C(NCCc1c[nH]c2ccccc12)c1cc([N+](=O)[O-])cc([N+](=O)[O-])c1
EC50 (cells): 0.264 µM (active)
EC50 [1]: < 0.1 µM (active)
EC50 [2]: > 60 µM (not active)

O=C(COC(=O)/C=C/c1ccc(Cl)cc1)Nc1ccccc1-c1ccccc1
IC50 [3]: 6.13 µM (active)
IC50 [4]: 8.06 µM (active)

Cc1cc(C(=O)N(C)CC2CCCN(CCc3ccc(F)cc3)C2)c(C)o1 (centres undefined)
EC50 (cells): 0.279 µM (active)
EC50 [1]: < 0.1 µM (active)
EC50 [2]: > 60 µM (not active)

Clc1ccccc1/C=C/c1nc(-c2ccccn2)no1
EC50 [5]: 6.25 µM (active)
AC50 [6]: 2 µM (active)
EC50 [7]: 1.87 µM (active)
IC50 [8]: > 39.8 µM (not active)
EC50 [9]: 5.54 µM (active)
AC50 [10]: > 52 µM (inactive)
EC50 [11]: 3.76 µM (active)
AC50 [12]: 2.74 µM (active)

N#Cc1c(-c2ccccc2)cc(-c2ccccc2)nc1SCc1nnc(-c2ccccc2)o1
EC50 [13]: 27.6 µM (not active)
AC50 (Cytochrome P450 2C19 [14]): 1.41 µM (inconclusive)
AC50 (Cytochrome P450 3A4 [15]): 7.08 µM (inconclusive)
AC50 (Cytochrome P450 2C9): 0.251 µM (inconclusive)
EC50 [16]: 25.1 µM (not active)
EC50 [17]: 26.1 µM (not active)

O=C(O)/C=C/C(=O)Nc1ccc2c(c1)NC(=O)CO2
IC50 [18]: > 50 µM (not active)
IC50 [19]: > 50 µM (not active)

Cc1cc(Cl)ccc1Oc1ncnc2oc(-c3ccccc3)cc12
EC50 [13]: > 79.4 µM (not active)
AC50 (Cytochrome P450 3A4 [20]): inconclusive
EC50 [16]: > 79.4 µM (not active)
EC50 [17]: > 79.4 µM (not active)

CCC(Oc1ccc2c(=O)c(-c3ccccc3OC)coc2c1)C(=O)OCc1ccccc1 (centres undefined)
IC50 [3]: 11.5 µM (not active)
IC50 [4]: 4.12 µM (active)

CCOc1cc2c(C#N)c(N3CCOCC3)nc(N)c2c(N)n1
IC50 [18]: > 50 µM (not active)
IC50 [19]: > 50 µM (not active)

CCO[C@@H]1OC(C(=O)N2CCN(Cc3ccc4c(c3)OCO4)CC2)=C[C@H](c2csc3ccccc23)[C@H]1CCCO
EC50 [13]: > 79.4 µM (not active)
EC50 [16]: > 79.4 µM (not active)
EC50 [17]: > 79.4 µM (not active)

CCOC(=O)OCC1OC(CCc2ccccc2)CCC1Oc1ccc(OC)cc1 (centres undefined)
AC50 (Cytochrome P450 2C19 [21]): 2.51 µM (inconclusive)

COC(=O)c1ccc(Oc2cc(C)nc(-n3nc(C)cc3C)n2)cc1
EC50 (BJ [22]): 0.69 µM (active)
AC50 (Cytochrome P450 3A4 [15]): 39.8 µM (inconclusive)
EC50 [23]: 2.25 µM (active)
EC50 (BJ [24]): 0.851 µM (active)
EC50 (BJ [25]): 0.699 µM (active)
IC50 [8]: 34.2 µM (not active)

COc1ccc(OC)c(Nc2cc(C)nc3nc(C)nn23)c1
IC50 [8]: 13 µM (not active)

Cc1ccc2nc(N(CCCN(C)C)C(=O)c3ccco3)sc2c1
EC50 (cells): 0.036 µM (active)
EC50 [1]: < 0.1 µM (active)
EC50 [2]: > 60 µM (not active)

C(=N/Nc1cc(N2CCOCC2)nc(N2CCOCC2)n1)/c1ccccc1
IC50 [18]: > 50 µM (not active)
IC50 [19]: > 50 µM (not active)
AC50 [26]: > 20 µM (inactive)

COc1ccc(/C=C/C(=O)c2ccc(OC)cc2O)cc1
AC50 (Cytochrome P450 2C19 [21]): 0.398 µM (inconclusive)

S=C(NCCc1ccccc1)N/N=C/c1ccccc1Cl
IC50 [3]: 5.02 µM (active)
IC50 [4]: 5.07 µM (active)

COc1ccc(S(=O)(=O)N(C)C[C@H]2Oc3c(NC(=O)Nc4ccccc4)cccc3C(=O)N([C@@H](C)CO)C[C@H]2C)cc1
AC50 [27]: 4.8 µM (active)
AC50 [28]: 33.8 µM (active)
